Results as given in ChEMBL document CHEMBL5518181, “Studies of antibacterial activity (in vitro and in vivo) and mode of action for des-acyl tridecaptins (DATs)” (Eur J Med Chem, 2024).
Values after ≈ are worked out from the molar mass of the structure shown. Active and inactive are the calls of the source. No cut-off for these calls is given here.

Columns and labels:
Klebsiella pneumoniae [1] = test: Antibacterial activity against wild-type Klebsiella pneumoniae ATCC 13883 assessed as inhibition of bacterial growth incubated for 18 hrs; format: functional; conditions: read-out: MIC100
Escherichia coli [2] = test: Antibacterial activity against wild-type Escherichia coli ATCC 25922 assessed as inhibition of bacterial growth by measuring fold increase in MIC incubated for 18 hrs in presence of 50% heat inactivated human serum relative to control; format: functional
Acinetobacter baumannii = test: Antibacterial activity against wild-type Acinetobacter baumannii ATCC 19606 assessed as inhibition of bacterial growth incubated for 20 hrs; format: functional; conditions: read-out: MIC100
Pseudomonas aeruginosa = test: Antibacterial activity against wild-type Pseudomonas aeruginosa PAO1 assessed as inhibition of bacterial growth incubated for 24 hrs; format: functional; conditions: read-out: MIC100
[3] = Genotoxicity in human TK6 cells measured after 3 to 24 hrs; format: toxicity, cell-based; conditions: time 3-24 hrs
Cytochrome P450 1A2 = target: T1, Cytochrome P450 1A2 (Homo sapiens, UniProt P05177); test: Induction of CYP1A2 (unknown origin); format: ADME
T1 sequence (P05177 whole entry): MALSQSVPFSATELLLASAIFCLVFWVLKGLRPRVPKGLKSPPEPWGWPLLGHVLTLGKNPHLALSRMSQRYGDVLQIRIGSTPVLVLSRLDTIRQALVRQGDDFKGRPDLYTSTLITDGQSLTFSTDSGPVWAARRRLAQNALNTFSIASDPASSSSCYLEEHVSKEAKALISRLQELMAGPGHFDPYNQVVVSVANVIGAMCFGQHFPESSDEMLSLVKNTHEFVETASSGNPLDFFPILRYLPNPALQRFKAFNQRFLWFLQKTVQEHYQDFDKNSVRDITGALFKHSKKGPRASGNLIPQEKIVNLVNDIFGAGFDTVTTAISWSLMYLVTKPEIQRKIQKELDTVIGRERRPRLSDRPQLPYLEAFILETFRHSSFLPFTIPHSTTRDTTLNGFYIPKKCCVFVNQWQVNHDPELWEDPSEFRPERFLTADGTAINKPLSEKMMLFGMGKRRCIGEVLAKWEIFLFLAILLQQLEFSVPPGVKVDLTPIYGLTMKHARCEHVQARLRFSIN

[4] = Cmax in Swiss mouse plasma at 10 mg/kg, iv administered as single bolus dose and measured upto 24 hrs by LC-MS/MS analysis; format: ADME, organism-based
[5] = Cmax in Swiss mouse kidney at 10 mg/kg, iv administered as single bolus dose and measured upto 24 hrs by LC-MS/MS analysis; format: ADME, organism-based
[6] = AUClast in Swiss mouse plasma at 10 mg/kg, iv administered as single bolus dose and measured upto 24 hrs by LC-MS/MS analysis; format: ADME, organism-based
[7] = AUClast in Swiss mouse lung at 10 mg/kg, iv administered as single bolus dose and measured upto 24 hrs by LC-MS/MS analysis; format: ADME, organism-based
Escherichia coli [8] = test: Antibacterial activity against Escherichia coli Swiss 7 harboring mcr-1 gene assessed as inhibition of bacterial growth incubated for 18 hrs; format: functional; conditions: read-out: MIC100
Escherichia coli [9] = test: Antibacterial activity against Escherichia coli Swiss 9 harboring mcr-1 gene assessed as inhibition of bacterial growth incubated for 18 hrs; format: functional; conditions: read-out: MIC100
Providencia stuartii = test: Antibacterial activity against Providencia stuartii ATCC 25826 assessed as inhibition of bacterial growth incubated for 18 hrs; format: functional; conditions: read-out: MIC100
Salmonella typhimurium = test: Antibacterial activity against Salmonella typhimurium ATCC 13311 assessed as inhibition of bacterial growth incubated for 18 hrs; format: functional, Salmonella enterica subsp. enterica serovar Typhimurium; conditions: Salmonella enterica, read-out: MIC100
Escherichia coli [10] = test: Antibacterial activity against Escherichia coli ATCC 25922 assessed as inhibition of bacterial growth incubated for 18 hrs in presence of 2 mM CaCl2; format: functional, organism-based
Escherichia coli [11] = test: Antibacterial activity against Escherichia coli ATCC 25922 assessed as inhibition of bacterial growth incubated for 18 hrs in presence of 25 mM bicarbonate; format: functional, organism-based
Klebsiella pneumoniae [12] = test: Antibacterial activity against Klebsiella pneumoniae ATCC 13883 assessed as inhibition of bacterial growth incubated for 18 hrs in presence of 2 mM CaCl2; format: functional, organism-based
Lipopolysaccharide (LPS) = test: Binding affinity to Escherichia coli O55:B5 LPS assessed as dissociation constant by ITC analysis; format: subcellular
Klebsiella pneumoniae [13] = test: Bactericidal activity against Klebsiella pneumoniae ATCC 13883 at 0 to 8 times MIC measured for 24 hrs by time-kill assay; format: functional, organism-based
Klebsiella pneumoniae [14] = test: Antibacterial activity against Klebsiella pneumoniae ATCC 43816 infected in cyclophosphamide immunosuppressed Swiss albino mouse respiratory infection model at 30 to 90 mg/kg, iv administered every 2 hrs starting from 1 hr post infection and measured 5 hrs post infection; format: functional, organism-based; conditions: dose 30-90 mg/kg, time 4.0 hrs
Klebsiella pneumoniae [15] = test: Antibacterial activity against Klebsiella pneumoniae ATCC 43816 infected in mouse urinary tract infection model assessed as reduction in bacterial burden in bladder at <10 mg/kg, iv administered every 4 hrs and measured after 26 hrs; format: functional, organism-based

## CC[C@H](C)[C@@H](NC(=O)[C@@H](NC(=O)[C@H](CCC(=O)O)NC(=O)[C@H](Cc1ccccc1)NC(=O)[C@@H](CCN)NC(=O)[C@H](CCN)NC(=O)[C@H](CO)NC(=O)[C@@H](Cc1c[nH]c2ccccc12)NC(=O)[C@@H](CO)NC(=O)CNC(=O)[C@@H](CCN)NC(=O)[C@H](NC(=O)[C@H](C)N)C(C)C)C(C)C)C(=O)N[C@@H](C)C(=O)O
Klebsiella pneumoniae [1]
  MIC: 4 µg/mL (≈ 2.73 µM)
Escherichia coli [2]
  fold change (FC): 2
Acinetobacter baumannii
  MIC: 32 µg/mL (≈ 21.8 µM)
Pseudomonas aeruginosa
  MIC: 64 µg/mL (≈ 43.7 µM)
[3]
  Activity: Non-Toxic
Cytochrome P450 1A2
  Activity: Not Active
[4]
  Cmax: 166 µg/mL
[5]
  Cmax: 152 µg/mL
[6]
  AUC(0-t) at 24 h: 82500 ng·h/mL
[7]
  AUC(0-t) at 24 h: 12100 ng·h/mL
Escherichia coli [8]
  MIC: 16 µg/mL (≈ 10.9 µM)
Escherichia coli [9]
  MIC: 8 µg/mL (≈ 5.46 µM)
Providencia stuartii
  MIC: > 32 µg/mL
Salmonella typhimurium
  MIC: 16 µg/mL (≈ 10.9 µM)
Escherichia coli [10]
  Activity: Active
Escherichia coli [11]
  Activity: Active
Klebsiella pneumoniae [12]
  Activity: Active
Lipopolysaccharide (LPS)
  Kd: 35.7 µM
Klebsiella pneumoniae [13]
  Activity: Active
Klebsiella pneumoniae [14]
  Activity: Active
Klebsiella pneumoniae [15]
  Activity: Active
